Experimental data reported in the supplement of paper PMC10307832.

Legend:
Experiment in all cases: relative viability (nuclei count vs DMSO), 5 days (fraction); higher = more cells survive
Linsitinib + Vorinostat = compound: C[C@]1(O)C[C@@H](c2nc(-c3ccc4ccc(-c5ccccc5)nc4c3)c3c(N)nccn32)C1 [Linsitinib] + O=C(CCCCCCC(=O)Nc1ccccc1)NO [Vorinostat] (partner 1 µM)
How it was run: (§1)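 After 5 days of treatment, lung cancer cells in 1536-well plates were fixed and stained in a single step (final 0.05% Triton X-100, 1% formaldehyde, 1 ug/ml Hoechst) and their nuclei counted on 4× images. Treatment had been applied by pin tool the day after seeding as one drug alone or as a fixed anchor-drug dose with five library-drug doses (not always all listed) in √10 steps. Relative viability is the nuclei count of treated wells divided by that of vehicle wells, and values are medians of duplicate plates.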

Linsitinib + Pemetrexed = compound: C[C@]1(O)C[C@@H](c2nc(-c3ccc4ccc(-c5ccccc5)nc4c3)c3c(N)nccn32)C1 [Linsitinib] + Nc1nc2[nH]cc(CCc3ccc(C(=O)N[C@@H](CCC(=O)O)C(=O)O)cc3)c2c(=O)[nH]1 [Pemetrexed] (partner 0.2 µM)
How it was run: as §1

Linsitinib + Lapatinib = compound: C[C@]1(O)C[C@@H](c2nc(-c3ccc4ccc(-c5ccccc5)nc4c3)c3c(N)nccn32)C1 [Linsitinib] + CS(=O)(=O)CCNCc1ccc(-c2ccc3ncnc(Nc4ccc(OCc5cccc(F)c5)c(Cl)c4)c3c2)o1 [Lapatinib] (partner 2 µM)
How it was run: as §1

Ispinesib + Luminespib = compound: Cc1ccc(C(=O)N(CCCN)[C@@H](c2nc3cc(Cl)ccc3c(=O)n2Cc2ccccc2)C(C)C)cc1 [Ispinesib] + CCNC(=O)c1noc(-c2cc(C(C)C)c(O)cc2O)c1-c1ccc(CN2CCOCC2)cc1 [Luminespib] (partner 0.01 µM)
How it was run: as §1

Cell Line | relative viability (Linsitinib + Vorinostat; first compound 0.01 µM) | relative viability (Linsitinib + Vorinostat; first compound 0.03162 µM) | relative viability (Linsitinib + Vorinostat; first compound 0.1 µM) | relative viability (Linsitinib + Vorinostat; first compound 0.3162 µM) | relative viability (Linsitinib + Vorinostat; first compound 1 µM) | relative viability (Linsitinib + Pemetrexed; first compound 0.01 µM) | relative viability (Linsitinib + Pemetrexed; first compound 0.03162 µM) | relative viability (Linsitinib + Pemetrexed; first compound 0.1 µM) | relative viability (Linsitinib + Pemetrexed; first compound 0.3162 µM) | relative viability (Linsitinib + Pemetrexed; first compound 1 µM) | relative viability (Linsitinib + Lapatinib; first compound 0.01 µM) | relative viability (Linsitinib + Lapatinib; first compound 0.03162 µM) | relative viability (Linsitinib + Lapatinib; first compound 0.1 µM) | relative viability (Linsitinib + Lapatinib; first compound 0.3162 µM) | relative viability (Linsitinib + Lapatinib; first compound 1 µM) | relative viability (Ispinesib + Luminespib; first compound 0.001 µM) | relative viability (Ispinesib + Luminespib; first compound 0.003162 µM) | relative viability (Ispinesib + Luminespib; first compound 0.01 µM) | relative viability (Ispinesib + Luminespib; first compound 0.03162 µM) | relative viability (Ispinesib + Luminespib; first compound 0.1 µM)
NCI-H358 | 0.74 | 0.564 | 0.812 | 0.55 | 0.368 | 0.187 | 0.168 | 0.183 | 0.141 | 0.162 | 0.423 | 0.388 | 0.388 | 0.366 | 0.303 | 0.424 | 0.435 | 0.549 | 0.405 | 0.259
SK-LU-1 | 0.71 | 0.557 | 0.788 | 0.75 | 0.742 | 0.913 | 0.686 | 0.997 | 0.894 | 0.985 | 0.889 | 0.902 | 0.987 | – | 0.815 | 0.212 | 0.224 | 0.219 | 0.194 | 0.178
H3255 | – | 0.761 | 0.698 | 0.396 | 0.682 | 0.457 | 0.566 | 0.533 | 0.557 | 0.521 | 0.247 | 0.284 | 0.19 | 0.245 | 0.206 | 0.898 | 1.1 | 0.859 | 0.557 | 0.29
LOU-NH91 | 0.983 | 0.817 | 0.914 | 0.735 | 0.76 | 0.405 | 0.345 | 0.394 | 0.357 | 0.392 | 0.698 | 0.655 | 0.706 | 0.741 | 0.579 | 0.332 | 0.311 | 0.394 | 0.25 | 0.297
